experiment: Displacement of [3H]2-BFI from I2-IBS in human frontal cortex membranes; format: cell membranes, Membrane

SMILES	Log Ki
N=C(N)NC(=O)CCCCCCCCC(=O)NC(=N)N	-6.11
N=C(N)NC(=O)CCCCCCCCCC(=O)NC(=N)N	-5.2
N=C(N)NC(=O)CCCCCCCCCCCC(=O)NC(=N)N	-5.06
N=C(N)NC(=O)CCCCCCCCCCCCC(=O)NC(=N)N	-5.91
N=C(N)NC(=O)CCCCCCCCCCCCCCC(=O)NC(=N)N	-5.7
N=C(N)NC(=O)CCCCCCCCCCC(=O)NC(=N)N	-5.69
N=C(N)NCCCCCCCCCCCCNC(=N)N	-7.48
c1ccc2c(c1)OCC(C1=NCCN1)O2 (stereo not drawn) [IDAZOXAN]	-7.43

Reference: ChEMBL document CHEMBL1140455, “On the search of new I2-IBS aliphatic ligands: bis-guanidino carbonyl derivatives” (Bioorg Med Chem Lett, 2007)
